Data published in BigSolDB 2.1.

O=[N+]([O-])/N=C1\NCCN1Cc1ccc(Cl)nc1
solubility (mole fraction)
Conditions | 293.15 K | 298.15 K | 303.15 K | 308.15 K | 313.15 K | 318.15 K | 323.15 K | 328.15 K | 333.15 K
in ethanol | 0.0006 | 0.0008 | 0.0009 | 0.0012 | 0.0015 | 0.0019 | 0.0025 | 0.003 | 0.0036
in ethyl acetate | 0.0027 | 0.0029 | 0.0034 | 0.0039 | 0.0044 | 0.0053 | 0.0061 | 0.0071 | 0.0084
in methanol | 0.0012 | 0.0015 | 0.0018 | 0.0023 | 0.0027 | 0.0036 | 0.0044 | 0.0054 | 0.0067
in methyl acetate | 0.0037 | 0.0042 | 0.0048 | 0.0057 | 0.0067 | 0.0078 | 0.0092 | 0.0107 | –
in n-butanol | 0.0004 | 0.0005 | 0.0006 | 0.0008 | 0.001 | 0.0013 | 0.0017 | 0.0021 | 0.0026
in n-butyl acetate | 0.0015 | 0.0019 | 0.0021 | 0.0027 | 0.0032 | 0.0035 | 0.0037 | 0.0041 | 0.0048
in n-propanol | 0.0005 | 0.0006 | 0.0008 | 0.0011 | 0.0013 | 0.0017 | 0.0022 | 0.0028 | 0.0034
